{"source": "patent US12312599B2", "about": "“Methods, compositions, and kits for producing beige adipocytes and treating metabolic disorders” (MaineHealth, priority 2018, dated 2025)", "key": {"[1]": {"test_system": "iPSCs", "experiment": "Mesoderm induction of iPSCs: FOXF1 and IRX3 expression", "format": "cell-based, human", "conditions": "SB added to in-house mesoderm induction medium", "description": "PSCs were cultured in monolayer on hESC-qualified Matrigel-coated plates (Corning) and expanded in NutriStem hPSC XF Medium (Stemgent) and passaged with ReLeSR passaging reagent (STEMCELL Technologies). For mesoderm induction (Day 0), PSC colonies was dissociated with TrypLE cell dissociation reagent (Thermofisher) and plated on Matrigel coated plates in NutriStem medium containing 10 μM Y-27632 Rho kinase inhibitor (Calbiochem). The following day (Day 1), NutriStem medium was replaced with STEMdiff Mesoderm Induction Medium (MIM) (STEMCELL Technologies) and changed each day until day 5.\nNote: Only use Y-27632 stock solutions that have been resuspended in DMSO. […] Conduct Mesoderm induction of iPSC in a laminar flow cabinet. • 3. Expand cells in NutriStem hPSC XF Medium overnight and change 100% of the medium without Y-27632 every 24 hours in a laminar flow cabinet for cell culture. When changing media, tilt plate up and allow media to pool at the bottom of wells. Aspirate the pooled medium without touching the surface of the plate. Replace with medium warmed to room temperature by pipetting 2 ml down the side of the wells. Cell Passaging • 1. Expand cell colonies until they have reached 70-80% confluence in high-density areas of the wells. High-density accumulation can occur along the edges of the well as well as the middle. Cells permitted to reach high density will lose their potential for differentiation after multiple passages. • 2. Prior to cell passage, warm cell wash buffer and NutriStem hPSC XF Medium to room temperature. Conduct cell passage in a laminar flow cabinet. • 3. Aspirate NutriStem hPSC XF Medium from wells with vacuum aspirator and wash with PBS without calcium or magnesium. Remove PBS and add 1 ml of ReLeSR reagent to side of well. Agitate plate to allow ReLeSR reagent to spread evenly on the surface. • 4. Aspirate ReLeSR reagent with vacuum aspirator after 30 seconds, which will leave behind a thin film of liquid. Incubate plate at 37° C. for 5-8 minutes undisturbed. • 5. Add fresh NutriStem hPSC XF Medium to wells and gently remove the cell colonies from the plate. Check that most cells have been dislodged from the plate surface with a light microscope. If not, rewash with more medium as needed. • 6. Transfer cell colony suspension in NutriStem hPSC XF Medium to Matrigel coated culture plates for further expansion (see Cell plating and culture above). Generation of iPSC Derived MSCs Mesoderm Induction of iPSC • 1. When iPSCs have reached 70-80% confluence, they will need to be passaged as single cells rather than colonies prior to mesoderm induction (day 0). • 2. Prepare for passage by warming cell wash buffer and NutriStem hPSC XF medium to room temperature and add Y-27632 Rho kinase inhibitor to medium at a final concentration of 10 μM. […]"}, "[2]": {"test_system": "SMAD2", "experiment": "Western blot of phosphorylated SMAD2 in FD-MSCs", "format": "cell-based, human", "conditions": "SB pretreatment 2 days in MesenCult-ACF", "description": "All assays were performed between 7 and 15 passages. For osteocyte differentiation, mature MSCs were grown in 24 well culture plates to 100% confluency in MesenCult-ACF and induced to differentiate in OsteoLife Complete Osteogenesis Medium (Lifeline Cell Technology) for 21 days prior to staining with Lifeline Alizarin Red Stain to visualize calcium deposition. For chondrocyte differentiation. For beige adipogenic precursor generation, cells were grown in 24 well culture plates to 90% confluence and treated with 5 uM SB413542 (Sigma) and 10 nM human IL-4 (Peprotech) for 2 days. For beige adipogenic induction, adipogenic precursors are differentiated for 3 days with adipogenic medium consisting of T3 (2 nM), insulin (170 nM), rosiglitazone (1 μM), SB413542 (5 uM), IBMX (0.5 mM), dexamethasone (5 μM) and indomethacin (125 μM) in EGM-2 medium (Lonza) supplemented with the BulletKit minus FGF2 (modified from^33). Thereafter, cells are maintained in adipogenic medium without IBMX, dexamethasone and indomethacin. The medium was changed every 3 days and adipocytes were fully differentiated by 9-12 days as determined by lipid accumulation and peak expression of UCP1. […] SWATH runs were extracted and analyzed using PeakView software and MarkerView software was utilized to find statistically relevant relationships through t test comparisons. […]"}}}
{"smiles": "NC(=O)c1ccc(-c2nc(-c3ccc4c(c3)OCO4)c(-c3ccccn3)[nH]2)cc1", "note": "[SB, SB431542]", "values": [{"measurement": "FOXF1 expression", "setting": "[1]", "result": "loss"}, {"measurement": "IRX3 expression", "setting": "[1]", "result": "increased expression"}, {"measurement": "constitutive phosphorylation of SMAD2", "setting": "[2]", "result": "inhibited"}]}
